Reference: the supplement of paper PMC10307832

Columns and labels:
Assay in all cases: relative viability (nuclei count vs DMSO), 5 days (fraction); higher = more cells survive
[1] = compound: CC(C)C[C@H](NC(=O)[C@H](Cc1ccccc1)NC(=O)c1cnccn1)B(O)O [Bortezomib] + CCNC(=O)c1noc(-c2cc(C(C)C)c(O)cc2O)c1-c1ccc(CN2CCOCC2)cc1 [Luminespib] (partner 0.01 µM)
Method in brief: (§1)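 Lung cancer cell lines, seeded in 1536-well plates, were treated the following day by pin tool with a single drug or with five library-drug doses (not always all listed) in √10 steps on top of a fixed anchor-drug dose. Cells were fixed and nuclei stained in one step after 5 days, and nuclei were counted. Relative viability is the nuclei count for treated wells divided by that for vehicle wells, reported as medians of duplicate plates.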

[2] = compound: CC(C)C[C@H](NC(=O)[C@H](Cc1ccccc1)NC(=O)c1cnccn1)B(O)O [Bortezomib] + NC(=O)Nc1cc(-c2cccc(F)c2)sc1C(=O)N[C@H]1CCCNC1 [AZD7762] (partner 0.2 µM)
Method in brief: as §1

[3] = compound: CC1=CC(=NN1)NC2=CC(=NC(=N2)/C=C/C3=CC=CC=C3)N4CCN(CC4)C + NC(=O)Nc1cc(-c2cccc(F)c2)sc1C(=O)N[C@H]1CCCNC1 [AZD7762] (partner 0.2 µM)
Method in brief: as §1

[4] = compound: COC1=CC(c2cc3ccccc3[nH]2)=N/C1=C\c1[nH]c(C)cc1C [Obatoclax] + Nc1nc2[nH]cc(CCc3ccc(C(=O)N[C@@H](CCC(=O)O)C(=O)O)cc3)c2c(=O)[nH]1 [Pemetrexed] (partner 0.2 µM)
Method in brief: as §1

Cell Line	relative viability ([1]; first compound 0.0002 µM)	relative viability ([1]; first compound 0.000632 µM)	relative viability ([1]; first compound 0.002 µM)	relative viability ([1]; first compound 0.006325 µM)	relative viability ([1]; first compound 0.02 µM)	relative viability ([2]; first compound 0.0002 µM)	relative viability ([2]; first compound 0.000632 µM)	relative viability ([2]; first compound 0.002 µM)	relative viability ([2]; first compound 0.006325 µM)	relative viability ([2]; first compound 0.02 µM)	relative viability ([3]; first compound 0.08 µM)	relative viability ([3]; first compound 0.253 µM)	relative viability ([3]; first compound 0.8 µM)	relative viability ([3]; first compound 2.53 µM)	relative viability ([3]; first compound 8 µM)	relative viability ([4]; first compound 0.01 µM)	relative viability ([4]; first compound 0.03162 µM)	relative viability ([4]; first compound 0.1 µM)	relative viability ([4]; first compound 0.3162 µM)	relative viability ([4]; first compound 1 µM)
201T	1.03	1.01	1.09	0.745	0.215	0.602	0.684	0.59	0.661	0.38	0.667	0.526	0.628	0.538	0.53	0.339	0.315	0.282	0.34	0.359
A-427	0.889	0.926	0.589	0.33	0.125	0.719	0.872	0.763	0.197	0.146	0.83	0.683	0.713	0.238	0.163	0.95	0.965	0.74	0.909	0.75
ABC-1	0.439	0.523	0.262	0.252	0.227		0.712	0.184	0.223	0.191		1.16	0.795	0.907	0.175					
BEN	0.314	0.665	0.568	0.249	0.184	0.667	0.788	0.73	0.578	0.389	0.734	0.726	0.667	0.508	0.283	0.852	0.534	0.44	0.618	0.762
COR-L23	0.639	0.669	0.61	0.0526	0.058											0.193	0.188	0.197	0.203	0.182
COR-L 105	0.784	0.914	0.614	0.434	0.211											1.13	1.01	1.15	1.27	0.584
HCC-78						0.591	0.603	0.453	0.616	0.238	0.628	0.746	0.868	0.401	0.249	0.858	0.898	0.777	0.887	0.897
HCC-366						0.221	0.331	0.401	0.37	0.0238	0.247	0.302	0.245	0.0242	0.0179	0.152	0.172	0.114	0.223	0.309
NCI-H520	0.223	0.234	0.237	0.211	0.217											0.657	0.714	0.656	0.643	0.249
NCI-H661	0.928	0.858	0.921	0.4	0.151											0.883	0.975	0.933	0.874	0.848
NCI-H727	0.374	0.321	0.358	0.382	0.279	0.631	0.611	0.688	0.698	0.595	0.571	0.427	0.601	0.55	0.381					
NCI-H1563	0.47	0.527	0.562	0.449	0.331											0.803	0.713	0.583	0.727	0.896
NCI-H1623	0.498	0.496	0.551	0.364	0.277															
NCI-H1648						0.549	0.634	0.771	0.518	0.269	0.578	0.691	0.663	0.626	0.513	0.758	0.746	1.06	0.64	0.782
NCI-H1650	0.186	0.185	0.177	0.203	0.217											0.397	0.356	0.361	0.377	0.331
NCI-H1703						0.117	0.102	0.133	0.178	0.137	0.151	0.0851	0.114	0.147	0.0896					
NCI-H2009	0.954	0.988	1.06	0.803	0.0826											0.978	1.05	0.974	0.993	0.471
NCI-H2023	0.638	0.694	0.789	0.118	0.0549											0.3	0.217	0.24	0.188	0.134
NCI-H2228	0.129	0.117	0.137	0.0914	0.093											0.317	0.308	0.367	0.304	0.274
SK-LU-1	0.218	0.205	0.201	0.155	0.118											0.861	0.984	0.937	0.759	0.415
SK-MES-1	0.801	0.763	0.72	0.166	0.156											1.02	0.904	0.874	0.776	0.292
SW 1573	0.162	0.222	0.214	0.0768	0.0532											0.824	0.938	0.887	0.427	0.196
UMC-11	0.871	0.978	0.972	0.597	0.167											0.768	0.808	0.82	0.795	0.433
